{"source": "paper PMC10732325", "about": "(ACS catalysis, 2023)", "key": {"VldE [1]": {"biological_target": "VldE (Streptomyces hygroscopicus, UniProt Q15JG1, H182A)", "sequence (Q15JG1 whole entry H182A)": "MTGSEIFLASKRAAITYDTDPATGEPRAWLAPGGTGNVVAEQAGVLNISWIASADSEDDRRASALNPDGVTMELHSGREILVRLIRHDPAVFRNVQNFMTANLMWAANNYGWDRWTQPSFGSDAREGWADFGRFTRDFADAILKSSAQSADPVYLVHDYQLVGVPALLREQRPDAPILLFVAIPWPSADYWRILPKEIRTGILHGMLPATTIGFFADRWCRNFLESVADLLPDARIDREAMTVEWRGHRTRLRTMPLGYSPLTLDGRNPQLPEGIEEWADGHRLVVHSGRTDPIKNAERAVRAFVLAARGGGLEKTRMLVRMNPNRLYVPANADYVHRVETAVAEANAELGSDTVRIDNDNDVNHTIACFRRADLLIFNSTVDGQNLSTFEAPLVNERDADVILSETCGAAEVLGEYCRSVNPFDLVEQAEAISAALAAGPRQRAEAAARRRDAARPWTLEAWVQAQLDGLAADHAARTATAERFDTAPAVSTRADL", "assay": "X-ray crystal structure", "format": "binding", "conditions": "apo crystals soaked with 10 mM GDP-glucose, only GDP found; pH 8.0"}, "VldE [2]": {"biological_target": "VldE (Streptomyces hygroscopicus, UniProt Q15JG1, D158N)", "sequence (Q15JG1 whole entry D158N)": "as the sequence (Q15JG1 whole entry H182A) above, with D158N, A182H counted along it", "assay": "X-ray crystal structure", "format": "binding", "conditions": "apo crystals soaked with 10 mM GDP-glucose, only GDP found; pH 8.5"}}}
{"smiles": "Nc1nc2c(ncn2[C@@H]2O[C@H](COP(=O)(O)OP(=O)(O)O)[C@@H](O)[C@H]2O)c(=O)[nH]1", "note": "[GDP]", "values": [{"measurement": "X-ray crystal structure", "setting": "VldE [1]", "result": "only the crystal structures of the two variants in complex with GDP were obtained"}, {"measurement": "X-ray crystal structure", "setting": "VldE [2]", "result": "only the crystal structures of the two variants in complex with GDP were obtained"}]}
